From patent US20060122165A1, “Crystalline cefdinir” (priority 2004, published 2006)

Tests used:
[1] = conversion of crystalline form B into form C on exposure to humidity or aqueous medium; format: physicochemical
Text: In another aspect of the invention, crystalline form C of cefdinir can be obtained by conversion of the crystalline form B of cefdinir, obtainable as described in US 2003/0204082 in Example 1, into crystalline form C of cefdinir. Cefdinir form B is in the form of a hydrate.
The equilibrating procedure of step a′) is preferably performed at a relative humidity of about 63% to about 75% , more preferably of about 65% to about 70%, such as of at 65% to 70%. Said equilibration may be performed in a gaseous atmosphere being e.g. air or nitrogen, preferably air having the above mentioned relative humidity. Above about 63% relative humidity, for example cefdinir form B crystals obtainable as described above convert to form C crystals. Form C crystals—once formed—are stable above a relative humidity of at least 45%.

[2] = stability of crystalline form at environmental relative humidity; format: physicochemical; conditions: form maintained as trihydrate

| Structure (SMILES) | relative humidity above which crystals convert to form C ([1]; equilibration in gaseous atmosphere (air or nitrogen)) | time for conversion into crystalline form C ([1]; exposure of pure crystalline form B to a relative humidity of at least about 65%) | time for conversion into crystalline form C ([1]; exposure of pure form B crystals to an aqueous suspending medium, preferably water) | relative humidity of environmental conditions at which the crystal form is stable [2] |
| --- | --- | --- | --- | --- |
| C=CC1=C(C(=O)O)N2C(=O)C(NC(=O)C(=NO)c3csc(N)n3)[C@H]2SC1 (stereo partly shown) [crystalline form B of cefdinir, 7-[2-(2-aminothiazol-4-yl)-2-hydroxyiminoacetamido]-3-vinyl-3-cephem-4-carboxylic acid] | Above 63% | within minutes | within seconds | – |
| C=CC1=C(C(=O)O)N2C(=O)C(NC(=O)C(=NO)c3csc(N)n3)[C@H]2SC1.O.O.O (stereo partly shown) [crystalline form C of cefdinir, 7-[2-(2-aminothiazol-4-yl)-2-hydroxyiminoacetamido]-3-vinyl-3-cephem-4-carboxylic acid trihydrate] | – | – | – | at least 45% |
